This assay has as its target T1, 5-epi-aristolochene synthase (TEAS) (Nicotiana tabacum, UniProt Q40577).
T1 sequence (Q40577 1-548): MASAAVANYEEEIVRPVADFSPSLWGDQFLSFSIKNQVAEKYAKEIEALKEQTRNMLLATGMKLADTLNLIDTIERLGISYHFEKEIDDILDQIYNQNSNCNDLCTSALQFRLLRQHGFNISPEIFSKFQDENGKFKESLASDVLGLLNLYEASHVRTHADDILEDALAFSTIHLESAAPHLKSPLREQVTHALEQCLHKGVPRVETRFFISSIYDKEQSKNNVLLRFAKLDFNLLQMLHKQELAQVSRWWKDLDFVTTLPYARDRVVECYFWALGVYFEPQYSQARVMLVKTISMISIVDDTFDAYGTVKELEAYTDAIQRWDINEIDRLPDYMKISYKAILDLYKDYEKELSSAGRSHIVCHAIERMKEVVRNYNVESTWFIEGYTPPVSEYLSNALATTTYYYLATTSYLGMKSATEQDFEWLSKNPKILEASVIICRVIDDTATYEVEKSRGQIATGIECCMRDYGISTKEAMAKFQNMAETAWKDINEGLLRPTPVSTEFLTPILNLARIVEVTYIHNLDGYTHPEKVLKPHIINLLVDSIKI
The experiment in a line: crystal structure. Type of assay: biochemical.

Each structure is given as a SMILES string.

What is called Ki is a dissociation constant, usually derived from enzyme kinetics or from competition with a known ligand.

Take `C/C(=C\COP(=O)(O)OP(=O)(O)O)CC/C=C(\C)CNc1ccccc1` [compound 4, AGPP]: the Ki is 380 nM.

For the origin of these results see PMC4570970 (ACS chemical biology, 2015).
